pIC50: −log10 of the molar value. Where two headings read alike, the source gives them in different places.
What was measured:
aurora B = aurora B (Homo sapiens, UniProt Q96GD4); assay: radioisotope-based P81 filter-binding assay, aurora B kinase; format: biochemical; details: for pIC50: read-out: Enzyme assay IC50 Aur B; for inhibition at 1 µM: compound at 1.0 μM, mean values (n=2), read-out: percent inhibition of enzyme catalytic activity, Aur B (numbers in parentheses)
Description: (§1) Compounds of formula (I)-(IV) were evaluated for abilities in inhibiting protein kinases aurora B and FLT-3 activity using radioisotope-based P81 filter-binding assay (Table 1).

FLT-3 = target: T1, FLT-3 (Homo sapiens, UniProt P36888); assay: radioisotope-based P81 filter-binding assay, FLT-3 kinase; format: biochemical; details: averaged from two independent dose-response curves; read-out: Enzyme assay IC50 FLT-3
T1 sequence (P36888 27-993): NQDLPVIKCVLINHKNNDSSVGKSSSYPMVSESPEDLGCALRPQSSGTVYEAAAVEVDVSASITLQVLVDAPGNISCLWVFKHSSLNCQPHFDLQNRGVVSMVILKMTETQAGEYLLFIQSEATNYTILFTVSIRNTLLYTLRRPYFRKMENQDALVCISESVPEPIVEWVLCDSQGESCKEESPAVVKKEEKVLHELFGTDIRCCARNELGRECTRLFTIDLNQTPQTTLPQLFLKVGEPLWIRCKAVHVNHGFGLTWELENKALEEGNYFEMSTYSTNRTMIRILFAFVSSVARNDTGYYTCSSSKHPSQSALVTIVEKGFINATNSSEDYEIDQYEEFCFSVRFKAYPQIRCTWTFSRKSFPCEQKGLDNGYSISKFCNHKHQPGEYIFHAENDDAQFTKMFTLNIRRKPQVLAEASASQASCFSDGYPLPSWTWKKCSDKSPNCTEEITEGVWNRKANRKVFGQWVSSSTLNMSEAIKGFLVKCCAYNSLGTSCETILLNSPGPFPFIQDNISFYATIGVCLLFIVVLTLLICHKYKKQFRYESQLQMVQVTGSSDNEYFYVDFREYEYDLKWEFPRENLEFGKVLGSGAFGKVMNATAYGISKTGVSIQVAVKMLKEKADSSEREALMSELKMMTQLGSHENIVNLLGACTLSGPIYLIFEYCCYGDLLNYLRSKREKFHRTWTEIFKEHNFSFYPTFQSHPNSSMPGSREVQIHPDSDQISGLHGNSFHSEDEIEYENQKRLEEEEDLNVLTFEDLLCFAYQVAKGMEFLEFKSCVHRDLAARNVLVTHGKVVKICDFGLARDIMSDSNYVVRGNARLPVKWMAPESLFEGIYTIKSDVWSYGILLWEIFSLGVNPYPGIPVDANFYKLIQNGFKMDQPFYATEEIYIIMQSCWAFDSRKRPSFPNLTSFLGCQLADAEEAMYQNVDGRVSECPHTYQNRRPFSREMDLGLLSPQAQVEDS
Description: as §1

[1] = averaged from two independent dose-response curves

Chain of aurora B (Q96GD4 whole entry): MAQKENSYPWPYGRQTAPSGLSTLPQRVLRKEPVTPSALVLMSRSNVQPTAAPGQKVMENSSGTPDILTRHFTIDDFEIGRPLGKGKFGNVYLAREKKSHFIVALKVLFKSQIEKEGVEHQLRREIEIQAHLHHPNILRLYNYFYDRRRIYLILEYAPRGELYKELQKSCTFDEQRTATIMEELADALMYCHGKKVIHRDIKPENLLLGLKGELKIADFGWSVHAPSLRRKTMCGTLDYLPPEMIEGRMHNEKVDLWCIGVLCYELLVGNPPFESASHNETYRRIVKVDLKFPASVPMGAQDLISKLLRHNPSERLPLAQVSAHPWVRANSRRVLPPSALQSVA

SMILES | pIC50 (aurora B; [1]) | pIC50 (FLT-3) | melting point | inhibition at 1 µM (aurora B) | pIC50 (aurora B)
COc1ccc(C(=O)NC(=O)Nc2ccc3c(c2)NC(=O)/C3=C\c2ccccn2)cc1 [D20, (Z)-4-methoxy-N-(2-oxo-3-(pyridin-2-ylmethylene)indolin-6-ylcarbamoyl)benzamide] |  | < 6.00 | 268 to 273 °C (dec.) | 28.7% | 
Cc1ccc(N2CCN(C(=O)Nc3ccc4c(c3)NC(=O)/C4=C\c3ccc[nH]3)C2=O)cc1 [D92, (Z)—N-(3-((1H-pyrrol-2-yl)methylene)-2-oxoindolin-6-yl)-2-oxo-3-p-tolylimida-zolidine-1-carboxamide] | 7.71 | 6.65 | > 300 °C |  | 
O=C1Nc2cc(NC(=O)N3CCN(c4ccccc4)C3=O)ccc2/C1=C/c1ccc[nH]1 [D83, (Z)—N-(3-((1H-pyrrol-2-yl)methylene)-2-oxoindolin-6-yl)-2-oxo-3-phenylimidazolidine-1-carboxamide] | 7.76 | 6.44 | 294 to 299 °C (dec.) |  | 
COc1ccc(C(=O)NC(=O)Nc2ccc3c(c2)NC(=O)/C3=C\c2cccs2)cc1 [D22, (Z)-4-methoxy-N-(2-oxo-3-(thiophen-2-ylmethylene)indolin-6-ylcarbamoyl)benzamide] | 7.67 | < 6.00 | 262 to 267 °C (dec.) |  | 
COc1ccc(-c2c[nH]cc(C(=O)Nc3ccc4c(c3)NC(=O)/C4=C\c3[nH]c(C)c(C(=O)N4CCN(C)CC4)c3C)c2=O)cc1 [D154] | 6.87 | 8.92 | 235 °C (dec.) |  | 
Cc1c[nH]cc(C(=O)Nc2ccc3c(c2)NC(=O)/C3=C\c2ccc[nH]2)c1=O [D139, (Z)—N-(3-((1H-pyrrol-2-yl)methylene)-2-oxoindolin-6-yl)-5-methyl-4-oxo-1,4-dihydropyridine-3-carboxamide] | 7.53 | 7.19 | > 300 °C |  | 
Cc1[nH]c(/C=C2\C(=O)Nc3cc(NC(=O)NC(=O)c4ccc(Cl)c(C(F)(F)F)c4)ccc32)c(C)c1CCC(=O)O (hydrate or solvate) [D37, (Z)-3-(5-((6-(3-(4-chloro-3-(trifluoromethyl)benzoyl)ureido)-2-oxo-indolin-3-ylidene)methyl)-2,4-dimethyl-1H-pyrrol-3-yl)propanoic acid] |  |  | 270 to 275 °C (dec.) |  | 
COc1ccc(C(=O)NC(=O)Nc2cc3c(cc2F)/C(=C/c2[nH]c(C)c(CCC(=O)O)c2C)C(=O)N3)cc1 [D51, (Z)-3-(5-((5-fluoro-6-(3-(4-methoxybenzoyl)ureido)-2-oxoindolin-3-ylidene)-methyl)-2,4-dimethyl-1H-pyrrol-3-yl)propanoic acid] |  |  |  |  | 8.52
COc1ccc(NC(=O)CC(=O)Nc2ccc3c(c2)NC(=O)/C3=C\c2ccc[nH]2)cc1 [D76, (Z)—N^1-(3-((1H-pyrrol-2-yl)methylene)-2-oxoindolin-6-yl)-N^3-(4-methoxyphenyl)malonamide] | 7.53 |  |  |  | 
CCOC(=O)CCc1c(C)[nH]c(/C=C2\C(=O)Nc3cc(NC(=O)NC(=O)c4ccc(OC)cc4F)ccc32)c1C [D63, (Z)-ethyl-3-(5-((6-(3-(2-fluoro-4-methoxybenzoyl)ureido)-2-oxoindolin-3-ylidene)methyl)-2,4-dimethyl-1H-pyrrol-3-yl)propanoate] | 6.66 | 5.42 |  |  | 
COc1ccc(C(=O)NC(=O)Nc2cc3c(cc2F)/C(=C/c2[nH]c(C)c(C(=O)O)c2C)C(=O)N3)c(F)c1 [D59, (Z)-5-((5-fluoro-6-(3-(2-fluoro-4-methoxybenzoyl)ureido)-2-oxoindolin-3-ylidene)methyl)-2,4-dimethyl-1H-pyrrole-3-carboxylic acid] | 8.52 | 6.39 |  |  | 
Cc1[nH]c(/C=C2\C(=O)Nc3cc(NC(=O)c4c[nH]cc(-c5ccc(F)cc5F)c4=O)ccc32)c(C)c1CCC(=O)O [D147, (Z)-3-(5-((6-(5-(2,4-difluorophenyl)-4-oxo-1,4-dihydropyridine-3-carboxamido)-2-oxoindolin-3-ylidene)methyl)-2,4-dimethyl-1H-pyrrol-3-yl)propanoic acid] | 8.21 | 8.54 |  |  | 
Cc1[nH]c(/C=C2\C(=O)Nc3cc(NC(=O)c4c[nH]cc(-c5ccc(F)cc5)c4=O)ccc32)c(C)c1CC(=O)N1CCOCC1 [D153, (Z)—N-(3-((3,5-dimethyl-4-(2-morpholino-2-oxoethyl)-1H-pyrrol-2-yl)methylene)-2-oxoindolin-6-yl)-5-(4-fluorophenyl)-4-oxo-1,4-dihydropyridine-3-carboxamide] | 7.13 | 8.57 |  |  | 
COc1ccc(C(=O)NC(=O)Nc2cccc3c2/C(=C/c2ccc[nH]2)C(=O)N3)cc1 [D13, (Z)—N-(3-((1H-pyrrol-2-yl)methylene)-2-oxoindolin-4-ylcarbamoyl)-4-methoxybenzamide] |  | 7.24 |  | 11.2% | 

The remaining compounds from weak to strong by pIC50 (aurora B; [1]), led by results:

pIC50 (aurora B; [1]) | pIC50 (FLT-3) | melting point | SMILES | inhibition at 1 µM (aurora B) | pIC50 (aurora B)
8.36 | < 5.00 |  | COc1ccc(N2CCN(C(=O)Nc3ccc4c(c3)NC(=O)/C4=C\c3ccc[nH]3)C2=O)c(F)c1 [D94, (Z)—N-(3-((1H-pyrrol-2-yl)methylene)-2-oxoindolin-6-yl)-3-(2-fluoro-4-methoxyphenyl)-2-oxoimidazolidine-1-carboxamide] |  | 
8.49 | 6.92 |  | Cc1[nH]c(/C=C2\C(=O)Nc3cc(NC(=O)N4CCN(C5CC5)C4=O)ccc32)c(C)c1CCC(=O)O [D98, (Z)-3-(5-((6-(3-cyclopropyl-2-oxoimidazolidine-1-carboxamido)-2-oxoindolin-3-ylidene)methyl)-2,4-dimethyl-1H-pyrrol-3-yl)propanoic acid] |  | 
8.51 | 6.64 | > 300 °C | Cc1[nH]c(/C=C2\C(=O)Nc3cc(NC(=O)NC(=O)c4ccc(C(F)(F)F)cc4)ccc32)c(C)c1C(=O)O [D35, (Z)-2,4-dimethyl-5-((2-oxo-6-(3-(4-(trifluoromethyl)benzoyl)ureido)indolin-3-ylidene)methyl)-1H-pyrrole-3-carboxylic acid] |  | 
8.54 | 6.12 |  | Cc1[nH]c(/C=C2\C(=O)Nc3cc(NC(=O)c4c[nH]cc(-c5ccc(F)cc5)c4=O)ccc32)c(C)c1C(=O)N1CCOCC1 [D152, (Z)—N-(3-((3,5-dimethyl-4-(morpholine-4-carbonyl)-1H-pyrrol-2-yl)methylene)-2-oxoindolin-6-yl)-5-(4-fluorophenyl)-4-oxo-1,4-dihydropyridine-3-carboxamide] |  | 
8.68 | 6.94 | > 300 °C | COc1cc(OC)cc(C(=O)NC(=O)Nc2ccc3c(c2)NC(=O)/C3=C\c2[nH]c(C)c(C(=O)O)c2C)c1 [D42, (Z)-5-((6-(3-(3,5-dimethoxybenzoyl)ureido)-2-oxoindolin-3-ylidene)methyl)-2,4-dimethyl-1H-pyrrole-3-carboxylic acid] |  | 
8.74 | < 5.00 |  | O=C1Nc2cc(NC(=O)N3CCN(c4ccccc4F)C3=O)ccc2/C1=C/c1ccc[nH]1 [D90, (Z)—N-(3-((1H-pyrrol-2-yl)methylene)-2-oxoindolin-6-yl)-3-(2-fluorophenyl)-2-oxoimidazolidine-1-carboxamide] |  | 
8.82 | 7.79 | 275 to 280 °C (dec.) | COc1ccc(C(=O)NC(=O)Nc2cc3c(cc2F)/C(=C/c2[nH]c(C)c(CCC(=O)O)c2C)C(=O)N3)c(F)c1 [D60, (Z)-3-(5-((5-fluoro-6-(3-(2-fluoro-4-methoxybenzoyl)ureido)-2-oxoindolin-3-ylidene)methyl)-2,4-dimethyl-1H-pyrrol-3-yl)propanic acid] |  | 
8.82 | 6.04 |  | COc1ccc(C(=O)NC(=O)Nc2cc3c(cc2F)/C(=C/c2[nH]c(C)c(C(=O)O)c2C)C(=O)N3)cc1 [D49] |  | 
8.89 | 8.00 |  | COc1ccc(C(=O)NC(=O)Nc2ccc3c(c2)NC(=O)/C3=C\c2[nH]c(C)c(CCC(=O)O)c2C)c(F)c1 [D58, (Z)-3-(5-((6-(3-(2-fluoro-4-methoxybenzoyl)uriedo)-2-oxoindolin-3-ylidene)methyl)-2,4-dimethyl-1H-pyrrol-3-yl)propanoic acid] |  | 
8.92 | 8.57 |  | COc1ccc(C(=O)NC(=O)Nc2ccc3c(c2)NC(=O)/C3=C\c2[nH]c(C)c(CCC(=O)O)c2C)cc1 [D47, (Z)-3-(5-((6-(3-(4-methoxybenzoyl)ureido)-2-oxoindolin-3-ylidene)methyl)-2,4-dimethyl-1H-pyrrol-3-yl)propanoic acid] |  | 

Source: patent publication US8946282B2, “Indolin-2-one derivatives as protein kinase inhibitors” (Annji Pharmaceutical Co., Ltd., priority 2012, dated 2015)
